# From ChEMBL document CHEMBL5137044, “Expansion of the S-CN-DABO scaffold to exploit the impact on inhibitory activities against the non-nucleoside HIV-1 reverse transcriptase” (Eur J Med Chem, 2022)
# How the values were obtained:
# [1] = Cytotoxicity against human MT4 cells assessed as cell growth inhibition incubated for 5 days by MTT assay; type: toxicity, cell-based; conditions: time 5 day
# [2] = system: Human immunodeficiency virus 1; test: Antiviral activity against drug-resistant HIV-1 Y181C mutant infected in human MT4 cells assessed as reduction in virus-induced cytopathic effect incubated for 5 days by MTT assay; type: functional, organism-based; conditions: Human immunodeficiency virus 1, Y181C mutant, MT4, 120 h
# [3] = Fold resistance, ratio of EC50 for antiviral activity against drug-resistant HIV-1 E138K mutant infected in human MT4 cells to EC50 for antiviral activity against […] HIV-1 infected in human MT4 cells; type: functional
# [4] = Fold resistance, ratio of EC50 for antiviral activity against drug-resistant HIV-1 Y188L mutant infected in human MT4 cells to EC50 for antiviral activity against […] HIV-1 infected in human MT4 cells; type: functional
# [5] = biological target: Human immunodeficiency virus type 1 reverse transcriptase (Human immunodeficiency virus 1, UniProt Q72547); test: Inhibition of recombinant wild-type p66/p51 HIV-1 reverse transcriptase incubated for 40 mins by picogreen dye-based spectrofluorometric analysis
# [6] = system: Human immunodeficiency virus 1; test: Antiviral activity against drug-resistant HIV-1 E138K mutant infected in human MT4 cells assessed as reduction in virus-induced cytopathic effect incubated for 5 days by MTT assay; type: functional, organism-based; conditions: Human immunodeficiency virus 1, E138K mutant, MT4, 120 h
# [7] = Fold resistance, ratio of EC50 for antiviral activity against drug-resistant HIV-1 L100I mutant infected in human MT4 cells to EC50 for antiviral activity against […] HIV-1 infected in human MT4 cells; type: functional
# [8] = system: Human immunodeficiency virus 1; test: Antiviral activity against […] HIV-1 infected in human MT4 cells assessed as reduction in virus-induced cytopathic effect incubated for 5 days by MTT assay; type: functional, organism-based; conditions: Human immunodeficiency virus 1, MT4, 120 h
# [9] = Selectivity index, ratio of CC50 for human MT4 cells to EC50 for antiviral activity against NNRTI resistant HIV-1 infected in human MT4 cells; type: toxicity, cell-based; conditions: read-out: Ratio CC50/EC50
# [10] = Fold resistance, ratio of EC50 for antiviral activity against drug-resistant HIV-1 K103 N mutant infected in human MT4 cells to EC50 for antiviral activity against […] HIV-1 infected in human MT4 cells; type: functional
# [11] = system: Human immunodeficiency virus 1; test: Antiviral activity against drug-resistant HIV-1 Y188L mutant infected in human MT4 cells assessed as reduction in virus-induced cytopathic effect incubated for 5 days by MTT assay; type: functional, organism-based; conditions: Human immunodeficiency virus 1, Y188L mutant, MT4, 120 h
# [12] = system: Human immunodeficiency virus 1; test: Antiviral activity against drug-resistant HIV-1 L100I mutant infected in human MT4 cells assessed as reduction in virus-induced cytopathic effect incubated for 5 days by MTT assay; type: functional, organism-based; conditions: Human immunodeficiency virus 1, L100I mutant, MT4, 120 h
# [13] = Fold resistance, ratio of EC50 for antiviral activity against drug-resistant HIV-1 Y181C mutant infected in human MT4 cells to EC50 for antiviral activity against […] HIV-1 infected in human MT4 cells; type: functional
# [14] = system: Human immunodeficiency virus 1; test: Antiviral activity against drug-resistant HIV-1 K103 N mutant infected in human MT4 cells assessed as reduction in virus-induced cytopathic effect incubated for 5 days by MTT assay; type: functional, organism-based; conditions: Human immunodeficiency virus 1, K103 N mutant, MT4, 120 h
Structure (SMILES),CC50 at 120 h [1] [µM],EC50 [2] [µM],Ratio EC50 [3],Ratio EC50 [4],IC50 [5] [µM],EC50 [6] [µM],Ratio EC50 [7],EC50 [8] [µM],selectivity ratio [9],Ratio EC50 [10],EC50 [11] [µM],EC50 [12] [µM],Ratio EC50 [13],EC50 [14] [µM]
Cc1c(C(C#N)c2cc(F)cc(F)c2)nc(SC(C)C)[nH]c1=O (stereo unspecified),202,8.7,4,>396,1.29,1.91,36,0.51,394,101,> 202,18.5,17,51.5
COc1ccccc1C(C#N)c1nc(SC(C)C)[nH]c(=O)c1C (stereo unspecified),> 379,1.91,2,687,0.158,0.09,10,0.04,> 9380,88,27.5,0.4,48,3.51
Cc1c(C(C#N)c2ccccc2F)nc(SC(C)C)[nH]c1=O (stereo unspecified),113,3.92,3,>2051,0.099,0.17,64,0.055,2030,192,> 113,3.53,71,10.6
Cc1c(C(C#N)c2cccnc2Cl)nc(SC(C)C)[nH]c1=O (stereo unspecified),251,> 60.9,1,>221,13.1,1.56,21,1.14,221,47,> 251,23.8,>53,53.6
Cc1c(C(C#N)c2cccc3c2OCO3)nc(SC(C)C)[nH]c1=O (stereo unspecified),96.5,50.7,4,>214,1.35,1.94,22,0.45,213,>214,> 96.5,10,113,> 96.5
Cc1c(C(C#N)c2cccc(Br)c2)nc(SC(C)C)[nH]c1=O (stereo unspecified),125,6.43,3,>445,0.57,0.71,26,0.28,443,>170,> 125,7.37,23,47.6
Cc1c(C(C#N)c2ccccc2C(F)(F)F)nc(SC(C)C)[nH]c1=O (stereo unspecified),251,10.1,1,>96,5.99,3.34,2,2.61,96,>26,> 251,5.92,4,> 67.6
Cc1c(C(C#N)c2ccccc2)nc(SC(C)C)[nH]c1=O (stereo unspecified),204,9.21,2,>550,1.51,0.87,28,0.37,547,185,> 204,10.3,25,68.3
O=C1Nc2ccc(Cl)cc2[C@@](C#CC2CC2)(C(F)(F)F)O1 [EFAVIRENZ],,0.0071,,,,0.0062,,,,,0.205,0.0371,,0.0942
Cc1c(C(C#N)c2ccc(F)c(C#N)c2)nc(SC(C)C)[nH]c1=O (stereo unspecified),164,> 164,2,>8,83.8,41.9,3,21.4,8,>8,> 164,57,>8,> 164
